From the supplement of paper PMC10627819

Assays:
B. subtilis 168 [1] = test: fitness (endpoint OD595 vs no drug) (fraction); higher = more growth
Procedure, shortened: (§1)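 Volumes were 30 µl per well, or 55 µl for S. pneumoniae, in 384-well plates inoculated at OD595 0.01. Media were TSB, LB Lennox or CY at 37 °C, and OD595 was read every 30 min for 14 h with first-reading background subtraction. Fitness is the ratio of optical density at stationary-phase entry to the robust mean of no-drug controls. That ratio is capped at 1.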

S. aureus DSM 20231 [2] = test: as above
Procedure, shortened: as §1

S. pneumoniae D39V [3] = test: as above
Procedure, shortened: as §1

B. subtilis 168 [4] = test: Bliss interaction score (quartile over a dose matrix) (fitness difference); higher = more antagonism (negative = synergy)
Procedure, shortened: (§2)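 Fitness here means normalised growth, inferred for single drugs from the combination data. Growth was OD595 at entry into stationary phase, divided by the plate's robust no-drug mean and capped at 1. The Bliss score is observed minus expected fitness, with the expectation being the product, and its quartiles span technical, biological and donor/recipient replicates.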

S. aureus DSM 20231 [5] = test: as above
Procedure, shortened: as §2

S. aureus Newman = test: as above
Procedure, shortened: as §2

S. pneumoniae D39V [6] = test: as above
Procedure, shortened: as §2
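Wherever Bliss interaction score (quartile over a dose matrix) is given: first quartile when negative (synergy) and third quartile when positive (antagonism).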

CCCCCCCCCC(=O)N[C@@H](Cc1c[nH]c2ccccc12)C(=O)N[C@H](CC(N)=O)C(=O)N[C@@H](CC(=O)O)C(=O)N[C@@H]1C(=O)NCC(=O)N[C@@H](CCCN)C(=O)N[C@@H](CC(=O)O)C(=O)N[C@H](C)C(=O)N[C@@H](CC(=O)O)C(=O)NCC(=O)N[C@H](CO)C(=O)N[C@@H]([C@H](C)CC(=O)O)C(=O)N[C@@H](CC(=O)c2ccccc2N)C(=O)O[C@@H]1C [Daptomycin] + CCC[C@@H]1C[C@@H](C(=O)N[C@@H]([C@H]2O[C@H](SC)[C@H](O)[C@@H](O)[C@H]2O)[C@@H](C)O)N(C)C1 [Lincomycin]
fitness
Conditions	partner 0.1 µg/mL	partner 0.2 µg/mL	partner 0.215 µg/mL	partner 0.4 µg/mL	partner 0.43 µg/mL	partner 0.8 µg/mL	partner 0.86 µg/mL
B. subtilis 168 [1], first compound 0.125 µg/mL	0.865	0.904	–	0.863	–	–	–
B. subtilis 168 [1], first compound 0.25 µg/mL	0.869	0.901	–	0.848	–	–	–
B. subtilis 168 [1], first compound 0.5 µg/mL	0.937	0.905	–	–	–	–	–
S. aureus DSM 20231 [2], first compound 0.5 µg/mL	0.962	0.821	–	–	–	–	–
S. aureus DSM 20231 [2], first compound 1 µg/mL	0.911	0.806	–	–	–	–	–
S. aureus DSM 20231 [2], first compound 2 µg/mL	0.937	0.817	–	–	–	–	–
S. pneumoniae D39V [3], first compound 1 µg/mL	–	0.409	0.764	0.22	0.697	0.053	0.396
S. pneumoniae D39V [3], first compound 2 µg/mL	–	0.405	0.764	0.241	0.72	0.0442	0.408
S. pneumoniae D39V [3], first compound 4 µg/mL	–	0.366	0.802	0.204	0.702	0.0329	0.411

fitness, B. subtilis 168 [1], one replicate
Conditions	first compound 0.25 µg/mL	first compound 0.5 µg/mL	first compound 1 µg/mL
partner 0.4 µg/mL	–	–	0.686
partner 0.8 µg/mL	0.851	0.788	0.647
partner 1.6 µg/mL	0.797	0.81	0.657

Conditions	Bliss interaction score
B. subtilis 168 [4]	-0.0659
S. aureus DSM 20231 [5]	0.099
S. aureus Newman	0.0732
S. pneumoniae D39V [6]	-0.133

CO/N=C(\C(=O)N[C@@H]1C(=O)N2C(C(=O)[O-])=C(C[N+]3(C)CCCC3)CS[C@H]12)c1csc(N)n1 [Cefepime] + CCC[C@@H]1C[C@@H](C(=O)N[C@@H]([C@H]2O[C@H](SC)[C@H](O)[C@@H](O)[C@H]2O)[C@@H](C)O)N(C)C1 [Lincomycin]
Conditions	fitness
S. aureus DSM 20231 [2], first compound 0.125 µg/mL, partner 0.1 µg/mL	0.877
S. aureus DSM 20231 [2], first compound 0.125 µg/mL, partner 0.2 µg/mL	0.876
S. aureus DSM 20231 [2], first compound 0.25 µg/mL, partner 0.1 µg/mL	0.939
S. aureus DSM 20231 [2], first compound 0.25 µg/mL, partner 0.2 µg/mL	0.908
S. aureus DSM 20231 [2], first compound 0.5 µg/mL, partner 0.1 µg/mL	0.906
S. aureus DSM 20231 [2], first compound 0.5 µg/mL, partner 0.2 µg/mL	0.835
S. pneumoniae D39V [3], first compound 0.007 µg/mL, partner 0.2 µg/mL	0.734
S. pneumoniae D39V [3], first compound 0.007 µg/mL, partner 0.4 µg/mL	0.521
S. pneumoniae D39V [3], first compound 0.007 µg/mL, partner 0.8 µg/mL	0.198
S. pneumoniae D39V [3], first compound 0.0078 µg/mL, partner 0.215 µg/mL	0.909
S. pneumoniae D39V [3], first compound 0.0078 µg/mL, partner 0.43 µg/mL	0.823
S. pneumoniae D39V [3], first compound 0.0078 µg/mL, partner 0.86 µg/mL	0.593
S. pneumoniae D39V [3], first compound 0.014 µg/mL, partner 0.2 µg/mL	0.729
S. pneumoniae D39V [3], first compound 0.014 µg/mL, partner 0.4 µg/mL	0.523
S. pneumoniae D39V [3], first compound 0.014 µg/mL, partner 0.8 µg/mL	0.185
S. pneumoniae D39V [3], first compound 0.0155 µg/mL, partner 0.215 µg/mL	0.878
S. pneumoniae D39V [3], first compound 0.0155 µg/mL, partner 0.43 µg/mL	0.821
S. pneumoniae D39V [3], first compound 0.0155 µg/mL, partner 0.86 µg/mL	0.514
S. pneumoniae D39V [3], first compound 0.028 µg/mL, partner 0.2 µg/mL	0.674
S. pneumoniae D39V [3], first compound 0.028 µg/mL, partner 0.4 µg/mL	0.458
S. pneumoniae D39V [3], first compound 0.028 µg/mL, partner 0.8 µg/mL	0.133
S. pneumoniae D39V [3], first compound 0.031 µg/mL, partner 0.215 µg/mL	0.82
S. pneumoniae D39V [3], first compound 0.031 µg/mL, partner 0.43 µg/mL	0.723
S. pneumoniae D39V [3], first compound 0.031 µg/mL, partner 0.86 µg/mL	0.323

Conditions	Bliss interaction score
B. subtilis 168 [4]	-0.0344
S. aureus DSM 20231 [5]	0.188
S. aureus Newman	0.0822
S. pneumoniae D39V [6]	0.2
